Measurements taken from US20250235460A1, “COMBINATION THERAPY USING GLUCOSE-DEPENDENT INSULINOTROPIC POLYPEPTIDE RECEPTOR ANTAGONIST COMPOUNDS AND GLP-1 RECEPTOR AGONIST COMPOUNDS” (Pfizer Inc., priority 2024, published 2025).

Legend:
human GLP-1R [1] = molecular target: human GLP-1R (Homo sapiens, UniProt P43220, L260F); experiment: CHO GLP-1R Clone C6 cAMP HTRF agonist assay (Assay 2, low receptor density); assay type: cell-based; conditions: for EC50: geometric mean; for Emax: CHO GLP-1R clone C6, relative to saturating GLP-1 (1 μM)
Sequence of human GLP-1R (Homo sapiens, UniProt P43220, L260F) (P43220 24-463 L260F): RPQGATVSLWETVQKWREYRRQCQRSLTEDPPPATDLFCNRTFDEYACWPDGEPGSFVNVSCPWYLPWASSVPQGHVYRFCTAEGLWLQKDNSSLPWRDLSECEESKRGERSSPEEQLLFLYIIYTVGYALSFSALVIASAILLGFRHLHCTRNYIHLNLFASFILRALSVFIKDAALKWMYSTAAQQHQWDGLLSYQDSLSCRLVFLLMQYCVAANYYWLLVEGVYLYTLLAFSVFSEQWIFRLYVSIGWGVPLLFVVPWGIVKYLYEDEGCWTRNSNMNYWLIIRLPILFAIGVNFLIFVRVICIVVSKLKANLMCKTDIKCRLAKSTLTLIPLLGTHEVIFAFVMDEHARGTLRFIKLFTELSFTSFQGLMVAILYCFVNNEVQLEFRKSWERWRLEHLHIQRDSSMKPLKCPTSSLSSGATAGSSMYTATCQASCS
Excerpt: In Table 5 and Table 6, assay data are presented to two (2) significant figures as the geometric mean (EC50s) and arithmetic mean (Emax) based on the number of replicates listed (Number). A blank cell means there was no data for that Example or the Emax was not calculated.

human GLP-1R [2] = molecular target: human GLP-1R (Homo sapiens, UniProt P43220, G168S); experiment: CHO GLP-1R Clone H6 cAMP HTRF agonist assay (Assay 1, high receptor density); assay type: cell-based; conditions: for EC50: geometric mean; for Emax: CHO GLP-1R clone H6, arithmetic mean, relative to saturating GLP-1 (1 μM), read-out: Assay 1 Emax (%)
Sequence of human GLP-1R (Homo sapiens, UniProt P43220, G168S) (P43220 24-463 G168S): as the sequence (P43220 24-463 L260F) above, with G145S, F237L counted along it
Summary of the method: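 Replicate runs were pooled. Potencies were averaged geometrically and maximal efficacies arithmetically, then rounded to two significant figures.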

[3] = CHO GLP-1R clone, low receptor density, cAMP HTRF

| Structure (SMILES) | EC50 (human GLP-1R [1]; CHO GLP-1R clone C6, cAMP HTRF) [nM] | Emax (human GLP-1R [1]; arithmetic mean) [%] | EC50 (human GLP-1R [2]; CHO GLP-1R clone H6, cAMP HTRF) [nM] | Emax (human GLP-1R [2]) [%] | EC50 (human GLP-1R [1]; [3]) [nM] | EC50 (human GLP-1R [2]; CHO GLP-1R clone, cAMP HTRF) [nM] | Assay 2 Emax (human GLP-1R [1]; relative to saturating full agonist GLP-1 (1 μM), arithmetic mean) [%] |
| --- | --- | --- | --- | --- | --- | --- | --- |
| COCCn1c(CN2CC[C@H](c3cccc(OCc4ccc(Cl)cc4F)n3)[C@@H](F)C2)nc2ccc(C(=O)O)cc21 (racemic) [Compound 189B, rac 2-{[(3S,4S)-4-{6-[(4-chloro-2-fluorobenzyl)oxy]pyridin-2-yl}-3-fluoropiperidin-1-yl]methyl}-1-(2-methoxyethyl)-1H-benzimidazole-6-carboxylic acid] | 1700 | 110 | 68 | 77 |  |  |  |
| COCCn1c(CN2CC[C@H](c3cccc(OCc4ccc(Cl)cc4F)n3)[C@@H](O)C2)nc2ccc(C(=O)O)cc21 (racemic) [Compound 190B, rac-2-{[(3S,4S)-4-{6-[(4-chloro-2-fluorobenzyl)oxy]pyridin-2-yl}-3-hydroxypiperidin-1-yl]methyl}-1-(2-methoxyethyl)-1H-benzimidazole-6-carboxylic acid] | 68 | 81 | 2.8 | 82 |  |  |  |
| COCCn1c(CN2CC[C@H](c3cccc(OCc4ccc(Cl)cc4F)n3)[C@H](O)C2)nc2ccc(C(=O)O)cc21 (racemic) [Compound 191B, rac-2-{[(3R,4S)-4-{6-[(4-chloro-2-fluorobenzyl)oxy]pyridin-2-yl}-3-hydroxypiperidin-1-yl]methyl}-1-(2-methoxyethyl)-1H-benzimidazole-6-carboxylic acid] | 9.2 | 94 | 0.55 | 77 |  |  |  |
| COCCn1c(CN2CC[C@H](c3cccc(OCc4ccc(Cl)cc4F)n3)[C@H](C)C2)nc2ccc(C(=O)O)cc21 (racemic) [Compound 192B, rac-2-{[(3R,4R)-4-{6-[(4-chloro-2-fluorobenzyl)oxy]pyridin-2-yl}-3-methylpiperidin-1-yl]methyl}-1-(2-methoxyethyl)-1H-benzimidazole-6-carboxylic acid] | 10 | 120 | 0.99 | 95 |  |  |  |
| COCCn1c(CN2CC[C@H](c3cccc(OCc4ccc(Cl)cc4F)n3)[C@@H](C)C2)nc2ccc(C(=O)O)cc21 (racemic) [Compound 193B, rac-2-{[(3S,4R)-4-{6-[(4-chloro-2-fluorobenzyl)oxy]pyridin-2-yl}-3-methylpiperidin-1-yl]methyl}-1-(2-methoxyethyl)-1H-benzimidazole-6-carboxylic acid] | 4.1 | 100 | 0.3 |  |  |  |  |
| CO[C@@H]1CCC[C@@H]1Cn1c(CN2CCC(c3cccc(OCc4ccc(Cl)cc4F)n3)CC2)nc2ccc(C(=O)O)cc21 (racemic) [Compound 196B, rac-2-[(4-{6-[(4-chloro-2-fluorobenzyl)oxy]pyridin-2-yl}piperidin-1-yl)methyl]-1-{[(1S,2S)-2-methoxycyclopentyl]methyl}-1H-benzimidazole-6-carboxylic acid] | 170 | 75 | 4.1 | 67 |  |  |  |
| COCCn1c(CN2CC[C@H](c3cccc(OCc4ccc(Cl)cc4F)n3)C[C@H]2C)nc2ccc(C(=O)O)cc21 (relative stereo) [Compound 357B, trans 2-{[4-{6-[(4-Chloro-2-fluorobenzyl)oxy]pyridin-2-yl}-2-methylpiperidin-1-yl]methyl}-1-(2-methoxyethyl)-1H-benzimidazole-6-carboxylic acid] | 350 | 70 | 28 | 82 |  |  |  |
| COCCn1c(CN2CC[C@@H](c3cccc(OCc4ccc(Cl)cc4F)n3)C[C@H]2C)nc2ccc(C(=O)O)cc21 (relative stereo) [Compound 358B, cis 2-{[4-{6-[(4-Chloro-2-fluorobenzyl)oxy]pyridin-2-yl}-2-methylpiperidin-1-yl]methyl}-1-(2-methoxyethyl)-1H-benzimidazole-6-carboxylic acid] | 77 | 75 | 4.2 | 69 |  |  |  |
| CCn1cncc1Cn1c(CN2CCC(c3cccc4c3OC(C)(c3ccc(Cl)cc3F)O4)CC2)nc2ccc(C(=O)O)cc21 (single isomer, unassigned; ent-1) [Compound 21B, Ammonium 2-({4-[2-(4-chloro-2-fluorophenyl)-2-methyl-1,3-benzodioxol-4-yl]piperidin-1-yl}methyl)-1-[(1-ethyl-1H-imidazol-5-yl)methyl]-1H-benzimidazole-6-carboxylate, ENT-1] |  |  |  |  | 1.1 | 0.079 |  |
| CCn1cncc1Cn1c(CN2CCC(c3cccc4c3OC(C)(c3ccc(Cl)cc3F)O4)CC2)nc2ccc(C(=O)O)cc21.N (single isomer, unassigned; ent-2) [Compound 22B, Ammonium 2-({4-[2-(4-chloro-2-fluorophenyl)-2-methyl-1,3-benzodioxol-4-yl]piperidin-1-yl}methyl)-1-[(1-ethyl-1H-imidazol-5-yl)methyl]-1H-benzimidazole-6-carboxylate, ENT-2] |  |  |  |  | 1000 | 210 | 87 |
| O=C(O)c1ccc2nc(CN3CCC(c4cccc5c4O[C@H](c4ccc(Cl)cc4F)O5)CC3)n(C[C@@H]3CCO3)c2c1 [Compound 4B, Ammonium 2-({4-[(2R)-2-(4-chloro-2-fluorophenyl)-1,3-benzodioxol-4-yl]piperidin-1-yl}methyl)-1-[(2S)-oxetan-2-ylmethyl]-1H-benzimidazole-6-carboxylate] |  |  |  |  | > 20000 |  |  |
| N#Cc1ccc(COc2cccc(C3CCN(Cc4nc5ccc(C(=O)O)cc5n4C[C@@H]4CCO4)CC3)n2)c(F)c1 [Compound 110B, 2-[(4-{6-[(4-cyano-2-fluorobenzyl)oxy]pyridin-2-yl}piperidin-1-yl)methyl]-1-[(2S)-oxetan-2-ylmethyl]-1H-benzimidazole-6-carboxylic acid] |  | 82 |  |  |  |  |  |
| N#Cc1ccc(COc2cccc(C3CCN(Cc4nc5ccc(C(=O)O)cc5n4C[C@@H]4CCOC4)CC3)n2)c(F)c1 [Compound 126B, 2-[(4-{6-[(4-cyano-2-fluorobenzyl)oxy]pyridin-2-yl}piperidin-1-yl)methyl]-1-[(3S)-tetrahydrofuran-3-ylmethyl]-1H-benzimidazole-6-carboxylic acid] |  | 90 |  |  |  |  |  |
| N#Cc1ccc(COc2nc(C3CCN(Cc4nc5ccc(C(=O)O)cc5n4C[C@@H]4CCCO4)CC3)ccc2F)cc1 [Compound 128B, 2-[(4-{6-[(4-cyanobenzyl)oxy]-5-fluoropyridin-2-yl}piperidin-1-yl)methyl]-1-[(2S)-tetrahydrofuran-2-ylmethyl]-1H-benzimidazole-6-carboxylic acid] |  | 86 |  |  |  |  |  |
| N#Cc1ccc(COc2nc(C3CCN(Cc4nc5ccc(C(=O)O)cc5n4C[C@H]4CCCO4)CC3)ccc2F)cc1 [Compound 129B, 2-[(4-{6-[(4-cyanobenzyl)oxy]-5-fluoropyridin-2-yl}piperidin-1-yl)methyl]-1-[(2R)-tetrahydrofuran-2-ylmethyl]-1H-benzimidazole-6-carboxylic acid] |  | 98 |  |  |  |  |  |
| CN1CCOC(Cn2c(CN3CCC(c4cccc(OCc5ccc(Cl)cc5F)n4)CC3)nc3ccc(C(=O)O)cc32)C1 (stereo not drawn) [Compound 338B, 2-[(4-{6-[(4-chloro-2-fluorobenzyl)oxy]pyridin-2-yl}piperidin-1-yl)methyl]-1-[(4-methylmorpholin-2-yl)methyl]-1H-benzimidazole-6-carboxylic acid] |  |  | > 20000 |  |  |  |  |
| O=C(O)c1ccc2nc(CN3CCC(c4cccc(OCc5ccc(Cl)cc5F)n4)CC3)n(CCC3CCOCC3)c2c1 [Compound 340B, 2-[(4-{6-[(4-chloro-2-fluorobenzyl)oxy]pyridin-2-yl}piperidin-1-yl)methyl]-1-[2-(tetrahydro-2H-pyran-4-yl)ethyl]-1H-benzimidazole-6-carboxylic acid] |  |  | 600 | 70 |  |  |  |
| Cc1n[nH]c(CCn2c(CN3CCC(c4cccc(OCc5ccc(Cl)cc5F)n4)CC3)nc3ccc(C(=O)O)cc32)n1 [Compound 341B, 2-[(4-{6-[(4-chloro-2-fluorobenzyl)oxy]pyridin-2-yl}piperidin-1-yl)methyl]-1-[2-(3-methyl-1H-1,2,4-triazol-5-yl)ethyl]-1H-benzimidazole-6-carboxylic acid] |  |  | 250 | 64 |  |  |  |
| Cc1nc(C(C)n2c(CN3CCC(c4cccc(OCc5ccc(Cl)cc5F)n4)CC3)nc3ccc(C(=O)O)cc32)n[nH]1 (stereo not drawn) [Compound 342B, 2-[(4-{6-[(4-chloro-2-fluorobenzyl)oxy]pyridin-2-yl}piperidin-1-yl)methyl]-1-[1-(5-methyl-1H-1,2,4-triazol-3-yl)ethyl]-1H-benzimidazole-6-carboxylic acid] |  |  | 1300 | 42 |  |  |  |
| O=C(O)c1ccc2nc(CN3CCC(c4cccc(OCc5ccc(Cl)cc5F)n4)CC3)n(C[C@H]3CCCO3)c2c1 [Compound 343B, 2-[(4-{6-[(4-chloro-2-fluorobenzyl)oxy]pyridin-2-yl}piperidin-1-yl)methyl]-1-[(2R)-tetrahydrofuran-2-ylmethyl]-1H-benzimidazole-6-carboxylic acid] |  |  | 510 | 64 |  |  |  |
| COCCn1c(CN2CCN(c3cccc(OCc4ccc(Cl)cc4F)n3)CC23CC3)nc2ccc(C(=O)O)cc21 [Compound 349B, 2-[(7-{6-[(4-chloro-2-fluorobenzyl)oxy]pyridin-2-yl}-4,7-diazaspiro[2.5]oct-4-yl)methyl]-1-(2-methoxyethyl)-1H-benzimidazole-6-carboxylic acid] |  |  | 1200 | 58 |  |  |  |
| COCCn1c(CN2CCN(c3cccc(OCc4ccc(Cl)cc4F)n3)C[C@@H]2C2CC2)nc2ccc(C(=O)O)cc21 [Compound 350B, 2-{[(2S)-4-{6-[(4-chloro-2-fluorobenzyl)oxy]pyridin-2-yl}-2-cyclopropylpiperazin-1-yl]methyl}-1-(2-methoxyethyl)-1H-benzimidazole-6-carboxylic acid] |  |  | 420 | 81 |  |  |  |
